Reference: ChEMBL document CHEMBL5214888, “The new opportunities in medicinal chemistry of fourth-generation EGFR inhibitors to overcome C797S mutation” (Eur J Med Chem, 2021)
Each block holds one compound with its values, some of them ahead of it.

Tests used:
[1] = molecular target: T1, Epidermal growth factor receptor (Homo sapiens, UniProt P00533, C797S/EX19DEL/T790M); assay: Inhibition of human EGFR del19/T790M/C797S mutant assessed as enzyme remaining activity using poly-Glu-Tyr peptide substrate incubated for 2 hrs in presence of [gamma-33P]ATP by radiometric kinase assay
[2] = molecular target: T2, Epidermal growth factor receptor (Homo sapiens, UniProt P00533, C797S/L858R/T790M); assay: Inhibition of EGFR L858R/T790M/C797S mutant (unknown origin)
BaF3 [3] = assay: Cytotoxicity against mouse BaF3 cells expressing human EGFR C797S/del19 mutant assessed as inhibition of in cell viability measured after 72 hrs by CellTiter-Glo assay; assay type: functional, cell-based; settings: BaF3, 72 h
BaF3 [4] = assay: Cytotoxicity against mouse BaF3 cells expressing human EGFR C797S/T790M/del19 mutant assessed as inhibition of in cell viability measured after 72 hrs by CellTiter-Glo assay; assay type: functional, cell-based; settings: BaF3, 72 h
PC-9 [5] = assay: Antiproliferative activity against human PC-9 cells assessed as inhibition of cell proliferation; assay type: functional, cell-based
PC-9 [6] = assay: Antiproliferative activity against human PC-9 cells harboring EGFR del19/T790M/C797S mutant assessed as inhibition of cell proliferation; assay type: functional, cell-based
PC-9 [7] = assay: Antiproliferative activity against human PC-9 cells harboring EGFR L858R/T790M/C797S mutant assessed as inhibition of cell proliferation; assay type: functional, cell-based
A549 = assay: Antiproliferative activity against human A549 assessed as inhibition of cell proliferation; assay type: functional, cell-based
[8] = Half life in C57Bl/6 mouse at 3 mg/kg, iv and measured upto 8 hrs by LC-MS/MS analysis; assay type: ADME, organism-based; settings: in vivo
[9] = AUClast in C57Bl/6 mouse at 3 mg/kg, iv and measured upto 8 hrs by LC-MS/MS analysis; assay type: ADME, organism-based; parameters: dose 3 mg/kg, time < 8 hrs, route iv; settings: in vivo
[10] = Cmax in C57Bl/6 mouse plasma at 20 mg/kg, po and measured upto 8 hrs by LC-MS/MS analysis; assay type: ADME, organism-based; parameters: dose 20 mg/kg, time < 8 hrs, route po
[11] = Oral bioavailability in C57Bl/6 mouse plasma at 20 mg/kg and measured upto 8 hrs by LC-MS/MS analysis; assay type: ADME, organism-based
[12] = molecular target: T1, Epidermal growth factor receptor; assay: Inhibition of human EGFR del19/T790M/C797S mutant using ATP-labelled peptide substrate by HTRF assay
BaF3 [13] = assay: cells; settings: Mus musculus, BaF3, 72 h
[14] = molecular target: T1, Epidermal growth factor receptor; assay: Inhibition of EGFR del19/T790M/C797S triple mutant (unknown origin) phosphorylation expressed in mouse BaF3 cells by fluorescence based microplate reader analysis; assay type: cell-based
BaF3 [15] = assay: Antiproliferative activity against mouse BaF3 cells harboring EGFR del19/T790M/C797S triple mutant assessed as inhibition of cell proliferation by celltiter-Glo assay; assay type: functional, cell-based
[16] = molecular target: T3, Epidermal growth factor receptor (Homo sapiens, UniProt P00533); assay: Inhibition of human wild type GST-tagged EGFR expressed in Sf9 cells assessed as substrate phosphorylation using TK-peptide as substrate incubated for 25 mins by HTRF assay
[17] = molecular target: T4, Epidermal growth factor receptor (Homo sapiens, UniProt P00533, L858R/T790M); assay: Inhibition of human GST-tagged EGFR L858R/T790M mutant expressed in Sf9 cells assessed as substrate phosphorylation using TK-peptide as substrate incubated for 20 mins by HTRF assay
[18] = molecular target: T2, Epidermal growth factor receptor; assay: Inhibition of human GST-tagged EGFR L858R/T790M/C797S mutant expressed in Sf9 cells assessed as substrate phosphorylation using TK-peptide as substrate incubated for 10 mins by HTRF assay
[19] = molecular target: T4, Epidermal growth factor receptor; assay: Inhibition of EGFR L858R/T790M mutant (unknown origin)
[20] = molecular target: T3, Epidermal growth factor receptor; assay: Inhibition of wild type EGFR (unknown origin)
BaF3 [21] = assay: cells; settings: Mus musculus
BaF3 [22] = assay: cells; settings: Mus musculus; remark: listed apart in the source

T3 sequence (P00533 whole entry): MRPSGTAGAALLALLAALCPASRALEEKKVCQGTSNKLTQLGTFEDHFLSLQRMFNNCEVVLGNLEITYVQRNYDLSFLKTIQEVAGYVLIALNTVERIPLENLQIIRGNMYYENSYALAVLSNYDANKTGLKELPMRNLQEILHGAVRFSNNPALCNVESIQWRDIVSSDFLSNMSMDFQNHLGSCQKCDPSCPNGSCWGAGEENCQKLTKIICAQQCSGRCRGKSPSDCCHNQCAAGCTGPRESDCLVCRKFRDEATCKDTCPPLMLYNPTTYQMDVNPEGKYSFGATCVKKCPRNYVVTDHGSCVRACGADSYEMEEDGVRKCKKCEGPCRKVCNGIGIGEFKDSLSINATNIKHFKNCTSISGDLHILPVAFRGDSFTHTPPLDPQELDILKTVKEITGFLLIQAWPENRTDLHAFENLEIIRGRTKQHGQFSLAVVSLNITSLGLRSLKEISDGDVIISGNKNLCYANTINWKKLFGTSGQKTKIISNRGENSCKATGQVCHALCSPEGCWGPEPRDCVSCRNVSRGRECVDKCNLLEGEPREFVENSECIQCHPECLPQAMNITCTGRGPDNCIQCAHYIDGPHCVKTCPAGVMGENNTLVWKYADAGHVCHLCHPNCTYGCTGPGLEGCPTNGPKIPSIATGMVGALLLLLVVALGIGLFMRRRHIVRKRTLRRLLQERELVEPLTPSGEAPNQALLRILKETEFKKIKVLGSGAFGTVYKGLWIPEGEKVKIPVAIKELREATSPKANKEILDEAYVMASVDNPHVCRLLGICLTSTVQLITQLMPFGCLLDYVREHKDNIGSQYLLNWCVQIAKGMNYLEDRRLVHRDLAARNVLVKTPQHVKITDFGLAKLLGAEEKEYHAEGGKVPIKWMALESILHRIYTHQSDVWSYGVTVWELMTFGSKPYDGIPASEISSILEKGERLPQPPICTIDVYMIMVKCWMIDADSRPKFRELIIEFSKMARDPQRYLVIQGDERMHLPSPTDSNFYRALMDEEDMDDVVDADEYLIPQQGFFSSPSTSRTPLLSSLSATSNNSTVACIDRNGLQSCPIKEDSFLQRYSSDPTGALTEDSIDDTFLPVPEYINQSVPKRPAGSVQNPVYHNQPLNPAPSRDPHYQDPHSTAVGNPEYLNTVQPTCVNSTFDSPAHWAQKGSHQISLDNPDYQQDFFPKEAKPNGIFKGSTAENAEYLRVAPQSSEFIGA
T1 sequence (P00533 whole entry, looked up, stated change not applied): as the sequence (P00533 whole entry) above
T2 sequence (P00533 25-1210 T790M/C797S/L858R limits assumed): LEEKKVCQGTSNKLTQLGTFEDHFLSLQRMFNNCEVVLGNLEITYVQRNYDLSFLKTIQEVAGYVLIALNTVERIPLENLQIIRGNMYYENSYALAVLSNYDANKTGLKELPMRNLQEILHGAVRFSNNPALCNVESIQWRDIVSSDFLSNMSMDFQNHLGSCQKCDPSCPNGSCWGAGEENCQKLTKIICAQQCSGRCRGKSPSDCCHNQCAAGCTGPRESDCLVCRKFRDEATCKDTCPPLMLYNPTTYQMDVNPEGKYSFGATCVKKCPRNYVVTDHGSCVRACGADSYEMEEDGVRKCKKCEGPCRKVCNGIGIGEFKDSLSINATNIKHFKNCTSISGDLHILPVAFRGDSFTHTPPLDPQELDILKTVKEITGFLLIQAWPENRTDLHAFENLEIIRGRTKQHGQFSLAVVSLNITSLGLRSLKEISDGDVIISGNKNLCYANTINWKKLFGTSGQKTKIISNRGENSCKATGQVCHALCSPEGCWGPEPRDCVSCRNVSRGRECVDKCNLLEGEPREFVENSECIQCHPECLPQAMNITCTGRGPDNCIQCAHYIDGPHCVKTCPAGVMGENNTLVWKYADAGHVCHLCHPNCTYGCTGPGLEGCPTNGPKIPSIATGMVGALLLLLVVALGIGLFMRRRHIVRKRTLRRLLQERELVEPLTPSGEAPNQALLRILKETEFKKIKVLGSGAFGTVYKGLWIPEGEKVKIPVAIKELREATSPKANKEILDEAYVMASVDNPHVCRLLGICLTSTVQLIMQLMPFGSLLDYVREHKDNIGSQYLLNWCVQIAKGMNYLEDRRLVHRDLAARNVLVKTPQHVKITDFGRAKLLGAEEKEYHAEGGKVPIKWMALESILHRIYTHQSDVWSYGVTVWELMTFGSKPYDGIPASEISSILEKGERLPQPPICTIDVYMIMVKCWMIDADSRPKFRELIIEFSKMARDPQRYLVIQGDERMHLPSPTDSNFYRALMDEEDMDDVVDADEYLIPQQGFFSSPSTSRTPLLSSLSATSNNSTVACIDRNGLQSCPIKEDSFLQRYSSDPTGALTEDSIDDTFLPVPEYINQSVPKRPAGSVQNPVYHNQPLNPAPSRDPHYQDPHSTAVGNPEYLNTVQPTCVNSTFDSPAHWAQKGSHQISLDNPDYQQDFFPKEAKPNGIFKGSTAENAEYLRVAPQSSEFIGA
T4 sequence (P00533 25-1210 T790M/L858R limits assumed): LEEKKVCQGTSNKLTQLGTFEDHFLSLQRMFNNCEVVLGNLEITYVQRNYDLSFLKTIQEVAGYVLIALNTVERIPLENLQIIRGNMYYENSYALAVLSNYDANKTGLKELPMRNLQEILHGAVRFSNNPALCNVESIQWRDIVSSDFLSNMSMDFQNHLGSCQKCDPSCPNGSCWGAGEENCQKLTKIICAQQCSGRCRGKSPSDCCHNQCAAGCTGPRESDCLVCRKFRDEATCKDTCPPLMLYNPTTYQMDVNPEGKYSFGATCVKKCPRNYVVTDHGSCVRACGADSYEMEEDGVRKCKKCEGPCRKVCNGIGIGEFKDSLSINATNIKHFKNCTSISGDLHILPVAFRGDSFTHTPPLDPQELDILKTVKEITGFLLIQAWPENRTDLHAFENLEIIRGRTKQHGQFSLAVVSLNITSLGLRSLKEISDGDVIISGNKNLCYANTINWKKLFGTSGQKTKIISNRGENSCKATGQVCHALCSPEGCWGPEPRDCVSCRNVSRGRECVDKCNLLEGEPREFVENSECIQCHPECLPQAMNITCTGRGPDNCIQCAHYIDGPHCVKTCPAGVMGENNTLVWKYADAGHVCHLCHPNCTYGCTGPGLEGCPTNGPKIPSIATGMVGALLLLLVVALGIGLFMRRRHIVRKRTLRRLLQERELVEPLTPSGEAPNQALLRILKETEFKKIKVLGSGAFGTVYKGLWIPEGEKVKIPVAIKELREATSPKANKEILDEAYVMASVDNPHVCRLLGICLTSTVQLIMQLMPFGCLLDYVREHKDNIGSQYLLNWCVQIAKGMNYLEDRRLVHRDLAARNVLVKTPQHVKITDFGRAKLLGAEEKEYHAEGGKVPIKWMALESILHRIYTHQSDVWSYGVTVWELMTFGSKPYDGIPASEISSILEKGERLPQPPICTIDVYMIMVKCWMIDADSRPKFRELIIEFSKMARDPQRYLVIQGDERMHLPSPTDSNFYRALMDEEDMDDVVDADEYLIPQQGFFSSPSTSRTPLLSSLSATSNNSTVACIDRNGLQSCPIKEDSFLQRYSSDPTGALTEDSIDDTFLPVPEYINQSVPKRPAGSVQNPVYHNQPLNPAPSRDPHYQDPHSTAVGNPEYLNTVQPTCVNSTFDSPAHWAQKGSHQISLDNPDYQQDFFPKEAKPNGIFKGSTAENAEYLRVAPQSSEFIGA

SMILES: COc1cc(N2CCC(N(C)C)CC2)ccc1Nc1ncc(Cl)c(Nc2ccccc2P(C)(C)=O)n1
IC50 (BaF3 [3]): 28.4 nM
IC50 (BaF3 [4]): 59.1 nM

SMILES: COc1cc(N2CCC(N)CC2)ccc1Nc1ncc(Cl)c(-c2c[nH]c3ccccc23)n1
IC50 (BaF3 [3]): 74.4 nM
IC50 (BaF3 [4]): 132 nM

SMILES: N#Cc1ccc(O)c(-c2nc(NCc3cnccn3)c3ccccc3n2)c1
IC50 [1]: 17 nM

SMILES: O=C(Nc1nccs1)C(c1ccccc1)N1Cc2ccc(-c3ccc4[nH]ccc4c3)cc2C1=O (centres undefined)
IC50 (BaF3 [13]): 900 nM

SMILES: Oc1ccc(-c2nc(-c3ccc(F)cc3)c(-c3ccnc4c3CC(c3ccccc3)N4)[nH]2)cc1 (centres undefined)
IC50 [19]: 916 nM
IC50 [20]: 49.2 nM

SMILES: CCC(=O)Nc1cccc(-c2c(-c3ccc(N4CCN(C)CC4)cc3)[nH]c3ncn(C4CCCCC4)c(=O)c23)c1
IC50 [16]: 0.4 nM
IC50 [17]: 0.4 nM
IC50 [18]: 22 nM

SMILES: OCCCCc1ccc(-c2nc(-c3ccc(F)cc3)c(-c3ccnc4c3CC(c3ccccc3)N4)[nH]2)cc1 (centres undefined)
IC50 [2]: 8.83 nM
IC50 [19]: 8.39 nM
IC50 [20]: < 0.3 nM

SMILES: OCCc1ccc(-c2nc(-c3ccc(F)cc3)c(-c3ccnc4c3CC(c3ccccc3)N4)[nH]2)cc1 (centres undefined)
IC50 [2]: 7.64 nM
IC50 [19]: 12.5 nM
IC50 [20]: < 0.3 nM

SMILES: CCC(=O)Nc1cccc(-c2c(-c3ccc(N4CCN(C)CC4)cc3)[nH]c3ncnc(OCC(C)C)c23)c1
IC50 [16]: 0.2 nM
IC50 [17]: < 0.1 nM
IC50 [18]: 8.5 nM

SMILES: CCC(=O)Nc1cccc(-c2c(-c3ccc(N4CCN(C)CC4)cc3)[nH]c3ncnc(OC(C)C)c23)c1
IC50 [16]: 0.1 nM
IC50 [17]: 0.1 nM
IC50 [18]: 8.6 nM

SMILES: COc1cc(N2CCC(N3CCN(C)CC3)CC2)ccc1Nc1ncnc(Nc2ccccc2S(=O)(=O)C(C)C)n1 [ASP-3026]
IC50 (BaF3 [3]): 324 nM
IC50 (BaF3 [4]): 1510 nM

SMILES: COc1cc(N2CCC(N3CCN(C)CC3)CC2)ccc1Nc1ncc(Cl)c(Nc2ccccc2P(C)(C)=O)n1 [BRIGATINIB]
IC50 (BaF3 [3]): 39.9 nM

SMILES: Cc1cc(Nc2ncc(Cl)c(Nc3ccccc3S(=O)(=O)C(C)C)n2)c(OC(C)C)cc1C1CCNCC1 [CERITINIB]
IC50 (BaF3 [4]): 780 nM

Next, values leading:

IC50 [1]: 149 nM
SMILES: Oc1ccccc1-c1nc(NCc2cccnc2)c2ccccc2n1

IC50 [2]: > 149 nM
SMILES: CSc1nc(-c2ccc(F)cc2)c(-c2ccnc(Nc3ccccc3)c2)[nH]1

IC50 [1]: 17.9 nM
SMILES: N#Cc1ccc(O)c(-c2nc(NCc3cccnc3)c3ccccc3n2)c1

IC50 [1]: 46 nM
SMILES: COC(=O)c1ccc(O)c(-c2nc(NCc3cccnc3)c3ccccc3n2)c1

IC50 (PC-9 [5]): 658 nM
IC50 (PC-9 [6]): 740 nM
IC50 (PC-9 [7]): 596 nM
IC50 (A549): 2860 nM
SMILES: COc1ccc(-c2c3c4cc(OCCCN(C)C)c(OCCCN(C)C)cc4oc(=O)c3n3ccc4cc(O)c(OC)cc4c23)cc1O

half-life [8]: 3 h
AUC(0-t) at 8 h [9]: 12100 ng·h/mL
Cmax [10]: 1100 nM
bioavailability [11]: 3%
SMILES: O=C(Nc1nccs1)C(c1cc(F)ccc1O)N1Cc2ccc(-c3ccc(N4CCNCC4)cc3)cc2C1=O (centres undefined)

IC50 [12]: 0.2 nM
SMILES: COc1cc(N2CCC(N3CCN(C)CC3)CC2)ccc1Nc1ncc(Cl)c(Nc2ccccc2NS(C)(=O)=O)n1

IC50 [12]: 0.8 nM
SMILES: COc1cc(N2CCC(N3CCN(CCO)CC3)CC2)ccc1Nc1ncc(Cl)c(Nc2ccccc2NS(C)(=O)=O)n1

IC50 [14]: < 100 nM
IC50 (BaF3 [15]): < 100 nM
SMILES: Cc1cc(Nc2ncc(Cl)c(Nc3ccccc3P(C)(C)=O)n2)ccc1N1CCC2(CC1)CN(C)C2

IC50 [16]: < 0.1 nM
IC50 [17]: < 0.1 nM
IC50 [18]: 9.4 nM
SMILES: CCCCOc1ncnc2[nH]c(-c3ccc(N4CCN(C)CC4)cc3)c(-c3cccc(NC(=O)CC)c3)c12

IC50 [16]: 1200 nM
IC50 [17]: 176 nM
SMILES: CCC(=O)Nc1cccc(-c2c(-c3ccccc3)[nH]c3ncnc(OC)c23)c1

IC50 [14]: < 100 nM
IC50 (BaF3 [15]): < 100 nM
SMILES: CN1CCC2(CC1)CCN(c1ccc(Nc3ncc(Cl)c(Nc4ccccc4P(C)(C)=O)n3)cc1Br)CC2

IC50 (BaF3 [21]): 290 nM
IC50 (BaF3 [22]): 316 nM
SMILES: CC(=O)N[C@H]1CC[C@@H](N2C(=O)N(c3ccccc3Cl)Cc3cnc(Nc4ccc(N5CCN(C)CC5)c(C)c4)nc32)CC1

IC50 [14]: < 100 nM
IC50 (BaF3 [15]): < 100 nM
SMILES: C=C(C)c1cnc(Nc2ccc(N3CCC4(CCN(C)CC4)CC3)c(C)c2)nc1Nc1ccccc1P(C)(C)=O
